Measured values from paper PMC7551256, “Biochemical Characterization of a Novel Endo-1,3-β-Glucanase from the Scallop Chlamys farreri” (Marine Drugs, 2020).

Legend:
Lcf [1] = target: T1, Lcf (Azumapecten farreri, UniProt A0A140H631); test: ESI-MS of transglycosylation products; format: biochemical; conditions: glycosyl acceptor 2 mg/mL; donor laminarihexaose 2 mg/mL; 25 mM sodium acetate pH 5.6, 37 °C, 5 min
T1 construct: full length without signal peptide; secreted from Brevibacillus (pNCMO2, BamHI/XhoI); about 37 kDa; primers encode AGFRDDF at N-terminus and DYIEMIPH-stop at C-terminus
T1 sequence (A0A140H631 16-340): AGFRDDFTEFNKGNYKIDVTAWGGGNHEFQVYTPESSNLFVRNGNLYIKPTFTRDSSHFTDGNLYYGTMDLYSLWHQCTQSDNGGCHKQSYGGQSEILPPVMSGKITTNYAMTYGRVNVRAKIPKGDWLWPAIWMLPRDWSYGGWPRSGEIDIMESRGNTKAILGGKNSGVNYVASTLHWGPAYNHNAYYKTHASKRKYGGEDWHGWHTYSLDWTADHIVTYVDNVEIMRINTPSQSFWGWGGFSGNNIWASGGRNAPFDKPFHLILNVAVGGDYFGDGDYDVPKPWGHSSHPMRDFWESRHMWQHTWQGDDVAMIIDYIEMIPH

Lcf [2] = target: T1, Lcf; test: TLC of hydrolysis products; ESI-MS; format: biochemical; conditions: 0.1% (w/w) substrate, 50 mM sodium acetate pH 5.6, 37 °C; hydrolysed, also glycosyl donor

| Structure (SMILES) | ESI-MS of transglycosylation products (Lcf [1]) | TLC of hydrolysis products; ESI-MS (Lcf [2]) |
| --- | --- | --- |
| OC[C@@H](O)[C@@H](O)[C@H](O)[C@@H](O)CO [D-sorbitol] | three transglycosylation products were observed in the presence of D-sorbitol |  |
| OC[C@H]1O[C@@H](O[C@@H]2[C@@H](O)[C@H](O[C@@H]3[C@@H](O)[C@H](O[C@@H]4[C@@H](O)[C@H](O[C@@H]5[C@@H](O)[C@H](O[C@H]6[C@H](O)[C@@H](CO)OC(O)[C@@H]6O)O[C@H](CO)[C@H]5O)O[C@H](CO)[C@H]4O)O[C@H](CO)[C@H]3O)O[C@H](CO)[C@H]2O)[C@H](O)[C@@H](O)[C@@H]1O (some centres unmarked) [laminarihexaose] |  | Lcf showed a more efficient cleavage rate toward laminarinexaose |
